# Measured values as given in patent publication US20260207670A1, “STABILIZED BLOOD DERIVED COMPOSITION USING ANTIFIBRINOLYTIC AGENTS” (priority 2022, published 2026).
# Legend:
# COL II gene = test: RT-PCR of COL II gene expression in the rabbit osteoarthritis model; type: in vivo; settings: p=0.12 (TXA), p=3.9*10-8 (PRP alone), p=2.1*10-6 (PRP+TXA)
# From the text: (§1) The measurement of the expression of the genes responsible for the cell differentiation is found to be important in assessing the potential regenerative of the therapy tested. The process of tissue repair involves the overexpression of the genes that are involved in the form of messenger RNA (mRNA) which will be essential for synthesis of proteins necessary for wound healing and differentiation. Therefore, quantification of the mRNA of such a gene will reflect the efficiency and the intensity of tissue repair. Based on this principle, in the rabbit osteoarthritis model of Example 3, RT-PCR was carried out in order to quantify two genes that are correlated to repair and differentiation hyaline cartilage: the COL II gene coding for the synthesis of collagen II; and the SOX9 gene coding for the differentiation mechanisms chondrocyte.
# [1] = tested on: rabbit model of osteoarthritis; test: Arthrosis rabbit model: radiological, macroscopic and histological scores; type: in vivo
# Protocol: Rabbits showing characteristic signs of osteoarthritis (as described in Guingamp et al., 1997; confirmed with the sacrifice of two rabbits on day 15 after induction of osteoarthritis and histology), were injected with a treatment solution as described below. The rabbits were sacrificed after 75 days and radiological observation, macroscopic observation, histological observation of the cartilage, histological observation of the synovium, histological observation of the menisci were carried out.
# The rabbits were treated with either: • 1. PRP alone; or • 2. […] Physiological serum (saline solution, a placebo)
# The limbs were examined radiologically by two orthogonal views (anteroposterior and medio-lateral) performed using a SAMSUNG XGO® model GU60 digital radiography system (Samsung® Electronics Co, Ltd; Korè) according to radiological constants following: Voltage: 52 kV; Intensity: 100 mA; and Load: 5 mAs. The radiographs were examined blindly by two observers. The degenerative changes are similar between the two subgroups of group control (physiological serum and TXA alone). […] This is explained by the fact that tranexamic acid prevents the destruction of the fibrin network within the joint space and allows a prolonged biological action.
# PRP fibrin clot = test: Speed of PRP fibrin clot disintegration (PRP gel disc diameter)
# SOX9 gene = test: RT-PCR of SOX9 gene expression in the rabbit osteoarthritis model; type: in vivo; settings: p=0.36 (TXA)
# From the text: as §1
structure (smiles),measurement,setting,value
"NC[C@H]1CC[C@H](C(=O)O)CC1 [TXA, tranexamic acid]",expression of COLII (RQ) compared to placebo,COL II gene,No significant difference
same,synovial score (osteoarthritic synoviopathy) compared to placebo,"[1]; after 75 days, p=0.58 (TXA)",no statistically significant differences
same,meniscal histological score compared to placebo,"[1]; after 75 days, p=0.6 (TXA), p=0.07 (PRP alone), p=2.2*10-6 (PRP+TXA)",no statistically significant differences
same,radiological score compared with physiological serum,"[1]; rabbits sacrificed after 75 days, p=0.092 (PRP alone)",similar
same,"effect on PRP gel disc breakdown, 20 mg/mL compared with 10 mg/mL",PRP fibrin clot; 20 mg/mL tranexamic acid vs 10 mg/mL (Example 1),even more beneficial effect
same,rate of PRP gel disc breakdown,"PRP fibrin clot; PRP gel discs with TXA 10 or 20 mg/ml vs pure PRP gel, diameter measured weekly over 21 days, physiological conditions",significantly reduced
same,expression of SOX9 gene (RQ) compared to placebo,SOX9 gene,No significant difference
